According to patent US5780505A, “Substituted N-arylmethylamino derivatives of cyclobutene-3, 4-diones” (American Home Products Corporation, priority 1997, dated 1998):
Read-outs that look alike come from different tables or passages of the source.

Legend:
[1] = tested on: hypertrophied bladder (detrussor) smooth muscle; experiment: Inhibition of spontaneous contractions in vivo (conscious female rats with hypertrophied bladders, cystometry); parameters: species or system Female Sprague-Dawley rats; conditions: hypertrophied rat bladder model
Description: In addition, we tested the ability of compounds to inhibit the hyperactivity of hypertrophied bladder (detrussor) smooth muscle in conscious female rats with hypertrophied bladders and thereby alleviate urinary incontinence in rats according to the following protocol described by Malmgren (A. Malmgren, K. E. Andersson, C. Sjogren, P. O. Andersson, Effects of pinacidil and Cromakalim (BRL 34915) on Bladder Function in Rats with Detrusor Instability, J. Urol. 142: 1134, 1989.):
Female Sprague-Dawley rats, ranging in weight from 190-210 g are used. Up to 25 animals are prepared each time. After developemnt of bladder hypertrophy 4-8 animals are used per test.
Compounds are dissolved in PEG-200 and administered by gastric gavage or intraveneously in a volume of 5 ml/kg. For primary screening all drugs are administered at the arbitrary dose of 10 mg/kg p.o. to groups of 4 rats.
The animals are anesthetized with halothane. Through a midline incision the bladder and urethra are exposed and a ligature of 4-0 silk is tied around the proximal urethra in the presence of a stainless steel rod (1 mm diameter) to produce a partial occlusion. The rod is then removed. The abdominal region is closed using surgical staples and each rat receives 150,000 units of bicillin C-R. The animals ar allowed six weeks to develop sufficient bladder hypertrophy. After six weeks, the ligature is removed under halothane anesthesia and a catheter (PE 60) with a cuff is placed in the dome of the bladder and secured with a purse string suture. The catheter is tunneled under the skin and exteriorized through an opening in the back of the neck. The abdominal incision is sutured and the free end of the catheter sealed. In order to prevent infections the rats receive an injection of bicillin C-R (150000 units/rat). Two days later the animals are used in cystometrical evaluations, The animals are placed in the metabolic cages and the catheter is attached (using a "T" connector) to a Statham pressure transducer (Model P23Db) and to a Harvard infusion pump. A plastic beaker attached to a force displacement transducer (Grass FTO3) is placed under the rat's cage to collect and record urine volume. Animals are allowed 15-30 min t rest before the saline infusion (20 ml/hr for 20 minutes) is started for the first cystometry period. Two hours after the first cystometry period, the rats are dosed with the vehicle or the test compound and one hour later a second cystometry is performed.
The following urodynamic variables are recorded:
Basal bladder pressure=the lowest bladder pressure during cystometry
Threshold pressure=bladder pressure immediately prior to micturition
Micturition volume=volume expelled
Micturition pressure=peak pressure during voiding
Spontaneous activity=mean amplitude of bladder pressure fluctuations during filling
Presentation of results: The mean value of each variable is calculated before and after compound administration. For each compound the changes in the variables measured are compared to the values obtained before treatment and expressed as percent inhibition. The data are also subjected to 2-way analysis of variance to determine significant (p<0.05) changes in the variable measured.
Criteria for Activity: The most characteristic finding in this rat model is spontaneous bladder contractions which develop during filling. The compounds which inhibit spontaneous contractions by at least 50% at 10 mg/kg p.o. or i.v. (arbitrary chosen dose) are considered active.

[2] = tested on: Isolated Rat Bladder Strips; experiment: Inhibition of contractions in isolated rat bladder strips (KCl-enhanced contractile activity; smooth muscle relaxation); assay type: cell-based, Sprague-Dawley rats; conditions: for inhibition at 30 µM: read-out: Percent inhibition at 30 μM (I)
Method in brief: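 Bladder strips from Sprague-Dawley rats were held in 37 °C PSS (pH 7.4, 95% O2/5% CO2) at 1.5 g resting tension with isometric force recording. Contractions were enhanced by an extra 15 mM KCl, then cumulative compound concentrations were added, each measured over the last minute of 30 min. IC50 is 50% inhibition of pre-drug contractile activity from the concentration-response curve.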

[3] = 0.5 h, isolated rat bladder strips, 15 mM additional KCl, 30 minute challenge, read-out: IC50 (50% inhibition of pre-drug contractile activity)

| SMILES | IC50 [2, 3] [nM] | % Red (F): percent reduction in the total number of spontaneous contractions ([1]; 3 mg/kg p.o.) [%] | also measured |
| --- | --- | --- | --- |
| CC(C)(C)Nc1c(NCc2ccc(C#N)cc2Cl)c(=O)c1=O [Example 2, 4-[(2-tert-Butylamino-3,4-dioxo-cyclobut-1-enylamino)-methyl]-3-chloro-benzonitrile] | 140 ± 20 |  | % Red (F): percent reduction in the total number of spontaneous contractions ([1]; 1 mg/kg p.o., prior lot of this compound (mp 234-236° C.)): -34 ± 11%; % Red (F): percent reduction in the total number of spontaneous contractions ([1]; 3 mg/kg p.o., prior lot of this compound (mp 234-236° C.)): -49 ± 8%; % Red (F): percent reduction in the total number of spontaneous contractions ([1]; 10 mg/kg p.o., prior lot of this compound (mp 234-236° C.)): -93 ± 3%; IC50 ([2]; Rattus norvegicus, prior lot (mp 234-236° C., softens 225° C.), n = 4, read-out: IC50 of a prior lot): 570 ± 340 nM |
| Cc1cc(Br)cc(C)c1CNc1c(NC(C)(C)C)c(=O)c1=O [Example 36, 3-(4-Bromo-2,6-dimethyl-benzylamino)-4-tert-butylamino-cyclobut-3-ene-1,2-dione] | 290 ± 20 | -83 ± 9 |  |
| Cc1cccc(Cl)c1CNc1c(NC(C)(C)C)c(=O)c1=O [Example 31, 3-tert-Butylamino-4-(2-chloro-6-methyl-benzylamino)-cyclobut-3-ene-1,2-dion] | 1100 ± 300 |  | % Red (F): percent reduction in the total number of spontaneous contractions ([1]; 10 mg/kg p.o.): -38 ± 13% |
| C[C@@H](Nc1c(NCc2ccc(C#N)cc2Cl)c(=O)c1=O)C(C)(C)C [Example 30, (R)-3-Chloro-4-{[3,4-dioxo-2-(1,2,2-trimethyl-propylamino)-cyclobut-1-enylamino]-methyl}-benzonitrile] | 180 ± 30 | -68 ± 10 | inhibition at 30 µM ([2]; Rattus norvegicus): 23% |
| CCc1cc(C#N)ccc1CNc1c(NC(C)(C)C)c(=O)c1=O [Example 27, 4-[(2-tert-Butylamino-3,4-dioxo-cyclobut-1-enylamino)-methyl]-3-ethyl-benzonitrile] | 240 ± 30 |  | % Red (F): percent reduction in the total number of spontaneous contractions ([1]; 10 mg/kg p.o.): -20 ± 22% |
| Cc1ccc(CNc2c(NC(C)(C)C)c(=O)c2=O)c(C)c1 [Example 8, 3-tert-Butylamino-4-(2,4-dimethyl-benzylamino)-cyclobut-3-ene-1,2-dione] | 630 ± 150 | -38 ± 7 |  |
| CC(Nc1c(NCc2ccc(C#N)cc2Cl)c(=O)c1=O)C(C)(C)C (centres unmarked) [Example 6, 3-Chloro-4-{[3,4-dioxo-2-(1,2,2-trimethyl-propylamino)-cyclobut-1-enylamino]-methyl}-benzonitrile] | 660 ± 200 | -51 ± 6 | % Red (F): percent reduction in the total number of spontaneous contractions ([1]; 10 mg/kg p.o.): -71 ± 3%; inhibition at 30 µM ([2]; Rattus norvegicus): 41.2% |
| CCC(C)(C)Nc1c(NCc2ccc(C#N)cc2Cl)c(=O)c1=O [Example 76] | 60 ± 14 | -57 ± 12 | IC50 ([2]; Rattus norvegicus, second lot (mp 215.5-216.0° C., softens 211.5° C.), n = 6, read-out: IC50 of a second lot): 130 ± 30 nM |
| CCc1cc(C#N)ccc1CNc1c(N[C@H](C)C(C)(C)C)c(=O)c1=O [Example 28, 4-{[3,4-Dioxo-2-(1,2,2-trimethyl-propylamino)-cyclobut-1-enylamino]-methyl}-3-ethyl-benzonitrile] | 2000 ± 200 |  |  |
| CC(C)(C)Nc1c(NCc2ccc(F)c(F)c2)c(=O)c1=O [Example 68, 3-tert-Butylamino-4-(3,4-difluoro-benzylamino)-cyclobut-3-ene-1,2-dione] | 2200 ± 800 |  |  |
| CCC(C)(C)Nc1c(NCc2c(C)cccc2C)c(=O)c1=O [Example 53, 3-(2,6-Dimethyl-benzylamino)-4-(1,1-dimethyl-propylamino)-cyclobut-3-ene-1,2-dione] | 830 ± 660 |  |  |
